# In patent US6933126B2, “Membrane transportable fluorescent substrates” (Applera Corporation, priority 2001, dated 2005):
# Tests used:
# [1] = system: β-galactosidase complementation in FRAP/FKBP12 (B14) cells; assay: FDG detection of rapamycin-induced β-galactosidase complementation in FRAP/FKBP12 (B14) cells; format: cell-based; conditions: for Fluorescence (w "SUPERFECT") / Fluorescence (w/o "SUPERFECT"): 90 min at 37° C.; for Fluorescence (w "SUPERFECT"): 0.6 mM FDG with "SUPERFECT" carrier; for Fluorescence (w/o "SUPERFECT"): 0.6 mM FDG, passive load; for Fluorescence signal to noise ratio (S/N): Induced cells
# Protocol: A second experiment was conducted to determine the effect of fluorescent substrate complex formation on FDG detection of rapamycin-induced β-galactosidase complementation in FRAP/FKBPI2 (B14) cells.
# A 96-well plate was plated with FRAP/FKBP12 cells at 10,000 cells per well. Half of the cells were incubated overnight with rapamycin to induce β-galactosidase complementation. The next day, the cells were washed with Opti-MEM. Half of the cells were incubated for 90 min at 37° C. with 254 μl 0.6 mM FDG (fluorescein-di-β-D-galactoside) in Opti-MEM. The remaining cells were incubated 90 min at 37° C. with 0.6 mM FDG, containing “SUPERFECT” as a carrier (14 μl “SUPERFECT” in 240 μl 0.6 mM FDG in Opti-MEM).
# (§1) The 96-well plate was read on a Cytofluor 4000 with excitation filter 485/20 and emission filter 530/25. The data was analyzed as triplicate averages.
# [2] = target: T1, β-galactosidase in Psi-2-BAG-α cells (Escherichia coli, UniProt P00722); assay: FDG detection of β-galactosidase in Psi-2-BAG-α cells, passive load vs "SUPERFECT" complex; format: cell-based; conditions: for Fluorescence (w "SUPERFECT") / Fluorescence (w/o "SUPERFECT"): Cells + Supernatant, 2 hrs, ex 485/20, em 530/25; for Fluorescence (w "SUPERFECT"): 0.6 mM FDG with 25 μl "SUPERFECT" carrier; for Fluorescence (w/o "SUPERFECT"): 0.6 mM FDG, passive load
# T1 construct: expressed in transfected cells; host or cells: Psi-2-BAG-α cells (own knowledge: mouse NIH-3T3-derived psi-2 packaging line stably carrying the BAG lacZ retroviral vector)
# T1 sequence (P00722 whole entry): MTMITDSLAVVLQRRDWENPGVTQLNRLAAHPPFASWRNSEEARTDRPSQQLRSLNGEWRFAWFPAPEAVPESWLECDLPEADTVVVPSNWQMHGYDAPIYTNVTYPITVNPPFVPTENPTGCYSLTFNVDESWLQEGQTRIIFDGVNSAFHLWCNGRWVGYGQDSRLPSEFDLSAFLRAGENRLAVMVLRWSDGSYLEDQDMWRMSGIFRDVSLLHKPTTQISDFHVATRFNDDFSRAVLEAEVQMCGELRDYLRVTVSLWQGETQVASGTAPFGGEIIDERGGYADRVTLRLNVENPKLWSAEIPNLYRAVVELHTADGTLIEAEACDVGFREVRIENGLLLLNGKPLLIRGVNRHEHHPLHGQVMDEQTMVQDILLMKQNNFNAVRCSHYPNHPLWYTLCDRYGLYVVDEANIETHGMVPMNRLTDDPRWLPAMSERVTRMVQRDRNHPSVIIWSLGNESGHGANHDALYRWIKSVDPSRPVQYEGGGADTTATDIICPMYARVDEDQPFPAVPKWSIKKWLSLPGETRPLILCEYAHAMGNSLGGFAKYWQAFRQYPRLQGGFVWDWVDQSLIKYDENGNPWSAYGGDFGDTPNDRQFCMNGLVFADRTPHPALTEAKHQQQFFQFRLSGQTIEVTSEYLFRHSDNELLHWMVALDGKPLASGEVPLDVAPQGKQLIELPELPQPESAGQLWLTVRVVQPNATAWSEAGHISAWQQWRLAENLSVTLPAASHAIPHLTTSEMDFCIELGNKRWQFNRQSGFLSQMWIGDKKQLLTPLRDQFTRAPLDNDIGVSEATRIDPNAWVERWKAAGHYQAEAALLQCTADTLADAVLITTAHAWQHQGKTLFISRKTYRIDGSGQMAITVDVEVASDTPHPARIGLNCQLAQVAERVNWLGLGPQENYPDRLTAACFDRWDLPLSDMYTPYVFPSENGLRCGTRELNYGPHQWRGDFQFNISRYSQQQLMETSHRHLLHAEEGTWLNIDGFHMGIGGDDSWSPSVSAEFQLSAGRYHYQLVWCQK
# Protocol: A first experiment was conducted to determine the effect of complex formation on FDG detection of β-galactosidase in Psi-2-BAG-α cells. First, FDG detection was measured using FDG without a transporter or carrier complexed thereto (passive load). This measured value was compared to a measurement using a complex of FDG and an activated polyamino dendrimer (e.g., “SUPERFECT”, which is a trademark of Qiagen N.V.).
# For the passive load test, two vials of cells were prepared. First, two vials each having 330,000 psi-2-BAG-α cells suspended in 250 μl 0.6 mM FDG in Opti-MEM were prepared. A first vial of cells was incubated at 4° C. for 2 hrs and the second vial of cells was incubated at 37° C. for 2 hrs.
# For the polyamino dendrimer complex, two vials of cells were prepared in the following manner. First, two vials each having 330,000 psi-2-BAG-α cells suspended in 250 μl 0.6 mM FDG in Opti-MEM containing 25 μl “SUPERFECT” as a polycationic carrier were prepared. The first vial of cells was incubated at 4° C. for 2 hrs and the second vial of cells was incubated at 37° C. for 2 hrs.
# Following incubation, 20 μl triplicate samples of the above four cell suspensions (passive/4° C., passive/37° C., “SUPERFECT”/4° C., “SUPERFECT”/37° C.) were added to a 96-well plate.
# as §1
# [3] = Induced cells (rapamycin overnight)
compound,measurement,setting,value
"O=C1OC2(c3ccc(O[C@@H]4O[C@H](CO)[C@H](O)[C@H](O)[C@H]4O)cc3Oc3cc(O[C@@H]4O[C@H](CO)[C@H](O)[C@H](O)[C@H]4O)ccc32)c2ccccc21 [FDG, fluorescein di-β-D-galactopyranoside]","Fluorescence (w ""SUPERFECT"")",[1]; [3],"12,721"
same,"Fluorescence (w/o ""SUPERFECT"")",[1]; [3],594
same,Fluorescence signal to noise ratio (S/N),"[1]; ""SUPERFECT"" assisted load of FDG",approximately 37
same,Fluorescence signal to noise ratio (S/N),"[1]; uncomplexed or passive load of FDG (w/o ""SUPERFECT"")",about 2
same,"Fluorescence (w ""SUPERFECT"")",[1]; Uninduced cells,338
same,"Fluorescence (w/o ""SUPERFECT"")",[1]; Uninduced cells,253
same,"Fluorescence (w ""SUPERFECT"")",[2]; 4° C.,"8,343"
same,"Fluorescence (w/o ""SUPERFECT"")",[2]; 4° C.,807
same,"Fluorescence (w ""SUPERFECT"")",[2]; 37° C.,"33,943"
same,"Fluorescence (w/o ""SUPERFECT"")",[2]; 37° C.,2492
same,Increase of fluorescence signal with Superfect-assisted load,[2]; Superfect-assisted load of FDG vs passive load,≥ 10 fold
